{
  "source": "patent US7384971B2",
  "about": "“Phytochemicals for the treatment of cervical dysplasia” (BioResponse L.L.C., priority 1999, dated 2008)",
  "key": {"[1]": {"tested_on": "person with chronic recurring breast pain (mastalgia)", "test": "Case study: processed DIM for chronic recurring breast pain (Example 5)", "format": "in vivo, human", "set-up": "key to Typical Breast Pain Score / Typical Breast Soreness Score: 0 = none; 1 = mild; 2 = moderate; 3 = significant; 4 = severe", "conditions": "After DIM, 225 mg per day, one month", "from_the_text": "The purpose of this study was to determine whether dietary supplementation with the cruicferous phytochemical, Diindolylmethane (DIM) is effective in relieving the pain of this chronic condition. patient one is a person referred for evaluation of perimenopausal symptoms of chronic recurring breast pain. They had been troubled by breast pain for many years with recent worsening in their symptoms. They had undergone a vaginal hysterectomy due to excessive and painful menstrual periods. Since their ovaries were left intact, they have received no Hormonal Replacement Therapy (HRT). During the last 4 years they experienced a monthly cycle of breast pain for about one week of each month. The breast pain was bilateral, associated with significant tenderness to touch, and a discomfort described as “heaviness or swelling.” A trial of a women's health supplement containing Don Quai provided no relief. Evaluation included a baseline morning urine sample and close assessment of their symptoms of breast pain during the ensuing month. Following this, bioavailable DIM was begun as a supplement at 225 mg per day together with increased dietary fiber. […] A second urine sample was obtained after one month on the DIM supplement."}, "[2]": {"tested_on": "colon cancer cells", "conditions": "cited from earlier work"}, "[3]": {"tested_on": "2-hydroxy and 16-hydroxy estrogen metabolites", "test": "Urinary estrogen metabolites, Elisa based assay (Estratest)", "format": "in vivo, human", "conditions": "After DIM, 225 mg per day", "description": "Evaluation included a baseline morning urine sample and close assessment of their symptoms of breast pain during the ensuing month. Following this, bioavailable DIM was begun as a supplement at 225 mg per day together with increased dietary fiber. […] A second urine sample was obtained after one month on the DIM supplement.\nThe urine samples were subsequently analyzed for their levels of 2-hydroxy and 16-hydroxy estrogen metabolites, using an Elisa based assay (Estratest, Immunacare, Inc., Bethlehem, Pa.)."}, "[4]": {"tested_on": "serum Ca-125 antigen", "test": "Serial serum Ca-125 antigen levels in endometriosis patient", "format": "in vivo, human", "from_the_text": "Diagnosis of the endometriosis and reduction in pain severity correlated with serial levels of serum Ca-125 antigen. Ca-125 is a serum marker with documented usefulness in monitoring the activity of endometriosis in a given patient (Pittaway D E and Fayez J A, 1986, “The use of CA-125 in the diagnosis and management of endometriosis”, Fertil Steril 46:790)."}, "[5]": {"tested_on": "MCF7 breast cancer cells", "conditions": "tested in the absence of estrogen; cited from earlier work"}, "[6]": {"tested_on": "non-cancerous colon cells", "conditions": "cited from earlier work"}, "[7]": {"tested_on": "carcinogen-induced breast cancer", "conditions": "oral; cited from earlier work"}, "[8]": {"tested_on": "person with severe endometriosis", "test": "Case study: processed DIM for endometriosis pain (Example 8)", "format": "in vivo, human", "from_the_text": "patient two is a slender and athletic person who sought alternatives in their management of severe endometriosis. Their symptoms of recurrent mid-cycle and menstrually associated pain have been diagnosed as due to endometriosis based on pelvic laparoscopy. This procedure confirmed aggressive endometriosis with ectopic endometrial implants removed from the pelvis and associated with intestinal serosal spread. A history of 2 years of intense pelvic pain at mid-cycle and during menstrual flow was reported prior to the laparoscopy. Their parent gives a history of painful menstrual periods […]. They went on to develop ovarian cancer requiring radical surgery […]. A maternal aunt developed cervical cancer requiring surgery. […] Like the patient, a younger sibling has been troubled with painful menstrual periods and pelvic pain leading to laparoscopy and the diagnosis of endometriosis.\nFollowing the patient's laparoscopy, one menstrual period was still associated with significant pain. Supplementation with bioavailable processed DIM was begun approximately 6 weeks following the laparoscopy. Initial supplementation with bioavailable processed DIM provided 300 mg/day for one month which was reduced to 150 mg/day thereafter. […] The patient continued DIM supplementation for about one year."}, "[9]": {"tested_on": "women with endometriosis", "conditions": "endometriosis therapy; cited from earlier work"}, "[10]": {"tested_on": "women with mastalgia", "conditions": "cited from earlier work"}, "[11]": {"tested_on": "recurrent laryngeal papillomatosis and cervical dysplasia", "conditions": "dietary supplementation; cited from earlier work"}, "[12]": {"tested_on": "2-hydroxy estrogen metabolism", "conditions": "women; cited from earlier work"}, "[13]": {"conditions": "Follow up Visit #3, Use of DIM YES"}, "[14]": {"conditions": "Follow-up Visit #1, Use of DIM YES"}, "[15]": {"conditions": "Follow-up Visit #2, Use of DIM YES"}},
  "data": [
    {"smiles": "c1ccc2c(Cc3c[nH]c4ccccc34)c[nH]c2c1", "note": "[DIM, 3,3′-Diindolylmethane]", "values": [
      {"measurement": "Typical Breast Soreness Score (in words)", "setting": "[1]", "result": "Absent"},
      {"measurement": "Typical Breast Pain Score (in words)", "setting": "[1]; one patient", "result": "Absent"},
      {"measurement": "Typical Breast Pain Score", "setting": "[1]; score out of 4", "result": "0/4"},
      {"measurement": "Typical Breast Soreness Score", "setting": "[1]; score out of 4", "result": "0/4"},
      {"measurement": "Effect on cell growth", "setting": "[2]", "result": "selective growth inhibitory activity"},
      {"measurement": "2-Hydroxy estrone level, urinary", "setting": "[3]; morning urine after one month", "result": 26.4, "unit": "ng/ml/mg Creatinine"},
      {"measurement": "2-Hydroxy to 16-Hyroxy estrone ratio", "setting": "[3]; urine after one month", "result": 5.08},
      {"measurement": "16-Hydroxy estrone level, urinary", "setting": "[3]; urine after one month", "result": 5.1, "unit": "ng/ml/mg Creatinine"},
      {"measurement": "Total urinary estrone metabolites", "setting": "[3]; urine after one month", "result": 31.3, "unit": "ng/ml/mg Creatinine"},
      {"measurement": "Ca-125 Antigen", "setting": "[4]; [13]", "result": 34.0},
      {"measurement": "Ca-125 Antigen", "setting": "[4]; [14]", "result": 26.4},
      {"measurement": "Ca-125 Antigen", "setting": "[4]; [15]", "result": 23.2},
      {"measurement": "Effect on cell growth", "setting": "[5]", "result": "promoted growth"},
      {"measurement": "Growth inhibitory activity", "setting": "[6]", "result": "not observed"},
      {"measurement": "Effect on tumor growth", "setting": "[7]", "result": "impede the growth"},
      {"measurement": "Pain Level", "setting": "[8]; [13]", "result": "Improved"},
      {"measurement": "Pain Level", "setting": "[8]; [14]", "result": "Improved"},
      {"measurement": "Pain Level", "setting": "[8]; [15]", "result": "Improved"},
      {"measurement": "Comfort of menstrual periods / need for analgesics", "setting": "[8]; supplementation for about one year", "result": "more comfortable, no longer requiring analgesics"}
    ]},
    {"smiles": "C#C[C@]1(O)CC[C@H]2[C@@H]3CCC4=Cc5oncc5C[C@]4(C)[C@H]3CC[C@@]21C", "note": "[Danazol]", "values": [
      {"measurement": "Women experiencing adverse side effects", "setting": "[9]", "result": "up to 80%"},
      {"measurement": "Response rate in mastalgia", "setting": "[10]; severe breast pain", "result": 70, "unit": "%"}
    ]},
    {"smiles": "OCc1c[nH]c2ccccc12", "note": "[I3C, Indole-3-carbinol]", "values": [
      {"measurement": "Clinical outcome", "setting": "[11]", "result": "some clinical improvement"},
      {"measurement": "Effect on 2-hydroxy estrogen metabolism", "setting": "[12]", "result": "increase 2-hydroxy estrogen metabolism"}
    ]},
    {"smiles": "CC(=O)O[C@]1(C(C)=O)CC[C@H]2[C@@H]3C[C@H](C)C4=CC(=O)CC[C@]4(C)[C@H]3CC[C@@]21C", "note": "[medroxyprogesterone acetate]", "values": [
      {"measurement": "Relief of mastalgia versus placebo", "setting": "[10]; controlled trial", "result": "no better than placebo"}
    ]}
  ]
}
